Measured values from patent publication US20030008024A1, “Therapeutic composition of herbal extracts and the uses thereof” (Advanced Herbal Therapeutics, Inc., priority 2001, published 2003).

How the values were obtained:
peritoneal macrophage = test: CRBC phagocytosis of peritoneal macrophage of mice; type: in vivo; conditions: 0.005 g/kg p.o. once daily 7 days
Description: Totals of 50 NIH mice weighing 18-22 g with equal sex distribution were randomly divided into 5 groups. The mice were treated p.o. with different doses of AHT-323 or other positive control drug once daily for 7 days. 1 h after the last dose, mice were injected i.p. with 0.2 ml […] of chick (10%). 4 h later, mice were sacrificed and the peritoneal fluid was obtained. Under microscope, the amount of macrophage that phagocytosed CRBC and the amount of CRBC phagocytosed by each macrophage were counted.

WBC of pleura = test: Migration of inflammatory cells of pleura (Fucus siliquosus glue); type: in vivo, NIH mice; conditions: 0.05 g/kg
Description: A total of 50 NIH mice were randomly divided into five groups. 0.5% Evans blue saline was injected into caudal vein at 0.1 ml/10 g body weight. Then mice were lightly anesthetized with ether and injected with 0.03 ml of Fucus siliquosus glue into right thoracic cavity to induce inflammation. 4 h and 32 h after inflammation induction, the mice were sacrificed and 2 ml of thoracic cavity wash liquid was collected and used to count the WBC and measure the optical density (OD) at 600 nm. […] The regression equation on 4 h was y=44.13-2.01x, r=0.9625.

cotton granuloma = test: Cotton granuloma and organ weights; type: in vivo, SD rats; conditions: 0.05 g/kg p.o. once daily 7 days
Description: 150 SD rats weighing 150-180 g with equal sex distribution were randomly divided into 15 groups. After light anesthesia with ether, an aseptic cotton ball (10 mg) was implanted into each armpit. On that day, rats were administered p.o. with different doses of AHT-323 or DXM once daily for 7 days. Twenty four hours after the last drug administration, the rats were sacrificed and the cotton balled granuloma were removed. The wet and dry weight of the granuloma, and other organs were obtained.

[1] = test system: ear swelling induced by croton oil; test: Ear swelling induced by croton oil; type: in vivo, NIH mice; conditions: 0.003 g/kg p.o. once daily 3 days
Description: A total of 60 NIH mice weighing 18-22 g with equal sex distribution were randomly divided into 6 groups. The mice were treated p.o. with different doses of AHT-323, tragacanth, or DXM once daily for 3 days. One hour after the last administration, 0.02 ml croton oil (2%) was pasted around the left auricle. Four hours later, mice were sacrificed by dislocating cervical vertebrae. The right and left ears were cut off and weighed to get the differences in the degree of ear swelling.

[2] = test system: adjuvant arthritis (AA) rats; test: Prophylactic effect on rat adjuvant arthritis (paw and ankle swelling); type: in vivo, SD rats; conditions: 0.01 g/kg p.o.
Description: The study was conducted in adjuvant arthritis (AA) rats, an experimental model for human rheumatoid arthritis.
(§1) In the study, 60 male SD rats weighing 180-220 g were used and randomly divided into 5 groups, including three test groups, one negative and one positive control groups. The rats were given p.o. three different dosages of AHT-323, tragacanth, or prednisone, respectively, once daily for 4 consecutive weeks. 0.1 ml of Freund's Complete Adjuvant (FCA) was also injected intradermally into the plantar of left hind paw of rats […]. Each day, the maximal circumference of both left and right paw and ankle joint were measured, and the swelling degrees (mm) were calculated to determine the AHT-323 on both primary and secondary injury. The primary injury occurs at the homolateral joints of the adjuvant injection and is resulted from direct, non-specific inflammatory reaction of the body to adjuvant. Whereas the secondary injury occurs at the contralateral joints of the adjuvant injection in about two weeks after adjuvant injection and is related to auto-immune responses induced by adjuvant injection. The pathological changes of human rheumatoid arthritis is similar to that of the secondary injury in AA rats.

[3] = test system: adjuvant arthritis (AA) rats; test: Therapeutic effect on adjuvant arthritis rats (swelling); type: in vivo, SD rats; conditions: 0.01 g/kg
Description: as §1
Totals of 50 male SD rats were divided into 5 groups with the same treatment as experiments described in section 3.3.1 except that the AHT-323 was given p.o. from d13˜d28 once daily for 2 weeks, (from the thirteenth day after injection of Freund's Complete Adjuvant).

T cells of AA mice = T cells of AA mice (esterase stain, flow cytometry); type: in vivo, NIH mice; conditions: 0.012 g/kg
Description: A total of 60 NIH mice weighing 20±2 g were randomly divided into 6 groups, among which four groups were injected intradermially with 0.05 ml FCA to induce AA model mice. The negative control group was injected intradermially with 0.05ml saline. The rats in AHT-323 test groups were administrated orally with AHT-323 once daily for consecutive five days. Five days later, peripheral blood was drawn from mice in all groups and stained with esterase. The percent of T cells (positive esterase stained cells) was calculated.
The above mice were anesthetized and spleens were removed and made into splenocytes suspension. CD4^+ T cells and CD8^+ T cells were assayed with flow cytometry and CD4^+/CD8^+ was calculated.

[4] = test system: paw swelling induced by carrageenin; test: Paw swelling induced by carrageenin in rat; type: in vivo, SD rats; conditions: 0.25 g/kg p.o. 3 days
Description: A total of 50 SD rats weighing 100-120g with equal sex distribution were randomly divided into 5 groups. The rats were treated p.o. with different doses of AHT-323, tragacanth, or aspirin once daily for 3 days. One hour later, rats were given subcutaneously injections with 0.05 ml of carrageenin (1%) in the right paw of each rat. The degree of paw swelling was measured using the drainage method before and 1, 3, 4, 5, and 6 h after injection of the carrageenin.

Question: What does the source list for `C[C@@H]1C[C@H]2[C@@H]3CCC4=CC(=O)C=C[C@]4(C)[C@@]3(F)[C@@H](O)C[C@]2(C)[C@@]1(O)C(=O)CO` [DXM, dexamethasone]?
Answer: Phagocytic index (peritoneal macrophage): 1.10 ± 0.18; Phagocytic percent (%) (peritoneal macrophage): 8.33 ± 10.13 %; WBC count (WBC of pleura; 4 h after inflammation induction): 12.7 ± 10.2; WBC count (WBC of pleura; 32 h): 4.4 ± 4.0; Granuloma Wt. Dry Wt. (cotton granuloma): 77 ± 17 mg/100 g; Granuloma Wt. Wet Wt. (cotton granuloma): 346 ± 92 mg/100 g; Weight of organs: Adrenal (cotton granuloma): 17 ± 5 mg/100 g; Weight of organs: Spleen (cotton granuloma): 412 ± 173 mg/100 g; Weight of organs: Thymus (cotton granuloma): 38 ± 13 mg/100 g; Weight of organs: uterus (cotton granuloma): 126 ± 33 mg/100 g; Swelling degree [1]: 14.13 ± 5.75 mg; inhibition at 3 mg/kg ([1]; Mus musculus, po, 72 h, read-out: Inhibition rate): 68.2%

Question: How did the Swelling degree ([2]; primary injury, 2nd block col 1 (day not given)) turn out when `C[C@]12C=CC(=O)C=C1CC[C@@H]1[C@@H]2C(=O)C[C@@]2(C)[C@H]1CC[C@]2(O)C(=O)CO` [Prednisone, prednisone] was run?
Answer: Its Swelling degree is 1.18 ± 0.76 cm.

Question: And the Swelling degree ([2]; primary injury, 2nd block col 2 (day not given))?
Answer: The Swelling degree was 1.03 ± 0.67 cm.

Question: And the Swelling degree ([2]; primary injury, 2nd block col 3 (day not given))?
Answer: The Swelling degree was 1.05 ± 0.69 cm.

Question: What about the Swelling degree ([2]; primary injury, 2nd block col 4 (day not given)) of the same compound?
Answer: The Swelling degree was 0.90 ± 0.64 cm.

Question: What about the Swelling degree ([2]; primary injury, 2nd block col 5 (day not given)) of the same compound?
Answer: The Swelling degree was 0.86 ± 0.65 cm.

Question: And the Swelling degree ([2]; primary injury, 2nd block col 6 (day not given))?
Answer: Its Swelling degree is 0.85 ± 0.59 cm.

Question: What about the Swelling degree ([2]; primary injury, d1) of the same compound?
Answer: Its Swelling degree is 0.64 ± 0.14 cm.

Question: What about the Swelling degree ([2]; primary injury, d2) of the same compound?
Answer: Its Swelling degree is 0.64 ± 0.16 cm.

Question: What about the Swelling degree ([2]; primary injury, d3) of the same compound?
Answer: Its Swelling degree is 0.50 ± 0.26 cm.

Question: What about the Swelling degree ([2]; primary injury, d9) of the same compound?
Answer: Its Swelling degree is 0.46 ± 0.25 cm.

Question: What about the Swelling degree ([2]; primary injury, d12) of the same compound?
Answer: Its Swelling degree is 0.72 ± 0.46 cm.

Question: And the Swelling degree ([2]; primary injury, d14)?
Answer: The Swelling degree was 0.87 ± 0.46 cm.

Question: And the Swelling degree ([2]; primary injury, d16)?
Answer: Its Swelling degree is 1.28 ± 0.69 cm.

Question: What about the Swelling degree ([2]; secondary injury, 2nd block col 1 (day not given)) of the same compound?
Answer: Its Swelling degree is 0.78 ± 0.70 cm.

Question: What about the Swelling degree ([2]; secondary injury, 2nd block col 2 (day not given)) of the same compound?
Answer: Its Swelling degree is 0.72 ± 0.71 cm.

Question: And the Swelling degree ([2]; secondary injury, 2nd block col 3 (day not given))?
Answer: Its Swelling degree is 0.67 ± 0.64 cm.

Question: And the Swelling degree ([2]; secondary injury, 2nd block col 4 (day not given))?
Answer: The Swelling degree was 0.62 ± 0.61 cm.

Question: What about the Swelling degree ([2]; secondary injury, 2nd block col 5 (day not given)) of the same compound?
Answer: The Swelling degree was 0.65 ± 0.64 cm.

Question: What about the Swelling degree ([2]; secondary injury, D9) of the same compound?
Answer: Its Swelling degree is 0.038 ± 0.048 cm.

Question: What about the Swelling degree ([2]; secondary injury, d2) of the same compound?
Answer: Its Swelling degree is 0.016 ± 0.039 cm.

Question: And the Swelling degree ([2]; secondary injury, d12)?
Answer: The Swelling degree was 0.14 ± 0.14 cm.

Question: And the Swelling degree ([2]; secondary injury, d14)?
Answer: Its Swelling degree is 0.38 ± 0.39 cm.

Question: And the Swelling degree ([2]; secondary injury, d16)?
Answer: The Swelling degree was 0.92 ± 0.62 cm.

Question: What about the Swelling degree ([2]; secondary injury, d18) of the same compound?
Answer: The Swelling degree was 0.78 ± 0.71 cm.

Question: What about the Swelling degree ([3]; primary injury, therapeutic (p.o. d13˜d28), D1) of the same compound?
Answer: Its Swelling degree is 1.78 ± 0.51 cm.

Question: And the Swelling degree ([3]; primary injury, therapeutic (p.o. d13˜d28), d2)?
Answer: Its Swelling degree is 1.70 ± 0.51 cm.

Question: And the Swelling degree ([3]; primary injury, therapeutic (p.o. d13˜d28), d4)?
Answer: The Swelling degree was 1.63 ± 0.50 cm.

Question: What about the Swelling degree ([3]; primary injury, therapeutic (p.o. d13˜d28), d6) of the same compound?
Answer: The Swelling degree was 1.58 ± 0.50 cm.

Question: What about the Swelling degree ([3]; primary injury, therapeutic, 2nd block col 1 (day not given)) of the same compound?
Answer: The Swelling degree was 1.27 ± 0.46 cm.

Question: And the Swelling degree ([3]; primary injury, therapeutic, 2nd block col 2 (day not given))?
Answer: Its Swelling degree is 1.09 ± 0.54 cm.

Question: And the Swelling degree ([3]; primary injury, therapeutic, 2nd block col 3 (day not given))?
Answer: The Swelling degree was 0.94 ± 0.50 cm.

Question: What about the Swelling degree ([3]; primary injury, therapeutic, 2nd block col 4 (day not given)) of the same compound?
Answer: Its Swelling degree is 0.94 ± 0.42 cm.

Question: What about the Swelling degree ([3]; secondary injury, therapeutic (p.o. d13˜d28), D1) of the same compound?
Answer: The Swelling degree was 1.08 ± 00.41 cm.

Question: And the Swelling degree ([3]; secondary injury, therapeutic (p.o. d13˜d28), d2)?
Answer: Its Swelling degree is 1.18 ± 00.44 cm.

Question: What about the Swelling degree ([3]; secondary injury, therapeutic (p.o. d13˜d28), d4) of the same compound?
Answer: Its Swelling degree is 1.23 ± 00.42 cm.

Question: What about the Swelling degree ([3]; secondary injury, therapeutic (p.o. d13˜d28), d6) of the same compound?
Answer: The Swelling degree was 1.19 ± 00.38 cm.

Question: What about the Swelling degree ([3]; secondary injury, therapeutic, 2nd block col 1 (day not given)) of the same compound?
Answer: Its Swelling degree is 0.88 ± 00.47 cm.

Question: What about the Swelling degree ([3]; secondary injury, therapeutic, 2nd block col 2 (day not given)) of the same compound?
Answer: The Swelling degree was 0.95 ± 00.43 cm.

Question: What about the Swelling degree ([3]; secondary injury, therapeutic, 2nd block col 3 (day not given)) of the same compound?
Answer: The Swelling degree was 0.82 ± 00.48 cm.

Question: What about the Swelling degree ([3]; secondary injury, therapeutic, 2nd block col 4 (day not given)) of the same compound?
Answer: The Swelling degree was 0.75 ± 00.37 cm.

Question: With `CC(=O)OC[C@]12[C@H](OC(C)=O)[C@H](OC(C)=O)[C@@H]3[C@@H](OC(C)=O)[C@@]14O[C@@]3(C)COC(=O)c1cccnc1CCC(C)(O)C(=O)O[C@@H]([C@H](OC(=O)c1ccccc1)[C@@H]2OC(C)=O)[C@]4(C)O` (stereo partly shown) [Wilfordine] as the compound, how does the “CD4^+/CD8^+” value (T cells of AA mice) read?
Answer: The value was 1.70 ± 0.03.

Question: What about the “ANAE^+ (%)” value (T cells of AA mice; peripheral blood) of the same compound?
Answer: The value was 48.88 ± 2.89%.

Question: What about the “CD4^+ (%)” value (T cells of AA mice; splenocytes) of the same compound?
Answer: The value was 27.88 ± 1.99 %.

Question: And the “CD8^+ (%)” value (T cells of AA mice; splenocytes)?
Answer: Its value is 16.33 ± 1.31 %.

Question: Which results are given for `CC(=O)Oc1ccccc1C(=O)O` [Aspirin, aspirin]?
Answer: Paw swelling rate (%) ([4]; 1 h): 6.3 ± 4.1 %; Paw swelling rate (%) ([4]; 3 h): 11.1 ± 6.3 %; Paw swelling rate (%) ([4]; 4 h): 17.9 ± 7.6 %; Paw swelling rate (%) ([4]; 5 h): 18.1 ± 7.0 %; Paw swelling rate (%) ([4]; 6 h): 20.6 ± 6.0 %
